Literature values as cited in US20260131010A1, “MENIN PROTEOLYSIS TARGETING CHIMERAS (PROTACS)” (Board of Regents, The University of Texas System, priority 2022, published 2026).

Tested on: MLL leukemias
Conditions: Borkin, et al. Cancer Cell 2015, 27(4) 589-602

## Cc1c(CN2CCC(Nc3ncnc4sc(CC(F)(F)F)cc34)CC2)ccc2c1cc(C#N)n2Cc1cn[nH]c1 [MI-503]
  efficacy in mouse models of MLL leukemias: effective
